Laboratory results: ChEMBL document CHEMBL5729003, “Dihydropyrimidine compounds and uses thereof in medicine” (2022)

Test: Old liquid medium can be removed and replaced with new medium (200 μL) on day 0.Formulating the compound and treating the cells in the experiment of anti virus: the compound was dissolved in DMSO to a concentration of 30 mM, and then the compound solution was diluted with DMSO to a concentration of […], and then eight dilutions at 4 fold were performed, the highest concentration is 800 μM. The serial diluted compound was added to the above plate at 1 μL per well, the highest final concentration in the experiment is 4 μM (200 fold dilution). TDF (tenofovir dipiroxil fumarate, Selleck, Cat S1400) has a highest concentration of 4 μM as a positive control. […] at a final concentration of 0.5%, TDF was added in to the positive control well at a final concentration of 1 μM.Detection of Viral Genomic DNA by qPCRPrimer: HBV-For-202, […]; HBV-Rev-315, […]. Copies of virus can be calculated using a standard curve plotted by using plasmid containing HBV genome and using SYBR Premix Ex Taq II Takara DRR081S kit and 1 μL cell culture supernatant as a template. EC50 values of the compound on viral replication were calculated by a four parametric nonlinear regression model using Graphpad Prism 5 software to manage concentration—viral copy number.
Details: HepG2.2.15

Structure (SMILES): COC[C@@H]1[C@H]2CN(c3ccc(C(C)(C)OC=O)cc3)C(=O)N2CCN1CC1=C(C(=O)OC)[C@H](c2ccc(F)cc2Cl)N=C(c2nccs2)N1
- EC50: 5 nM
